IC50, Activity and inhibition in vivo data for one compound are collected here from ChEMBL document CHEMBL4627310, “Design, synthesis and biological evaluation of 3-nitro-1,8-naphthalimides as potential antitumor agents” (Bioorg Med Chem Lett, 2020).

Active and inactive are the calls of the source. The rule behind the calls is not given here.

One test concerns L02. Kind of test: Cytotoxicity against human HL7702 cells assessed as cell growth inhibition measured after 48 hrs by MTT assay. It is filed as cell-based. As to conditions: L02, 48 h. (Formazan colour is commonly taken as a measure of viable cells.)
The subject of test [1] is T-24. Kind of test: Induction of apoptosis in human T24 cells assessed as pycnosis by AO/EB staining based assay. It is filed as functional, cell-based.
In another test the test system is SMMC-7721. Kind of test: Antiproliferative activity against human SMMC7721 cells assessed as cell growth inhibition measured after 48 hrs by MTT assay. Type of test: functional, cell-based. As to conditions: SMMC-7721, 48 h.
Test [2] relates to T-24. Kind of test: Cell cycle arrest in human T24 cells assessed as accumulation at G2/M phase at 2.06 uM measured after 24 hrs by propidium iodide staining based fluorescence analysis (reference value: 10.16%). It is filed as functional.
The subject of the next test is A549. Kind of test: Antiproliferative activity against human A549 cells assessed as cell growth inhibition measured after 48 hrs by MTT assay. Type of test: functional, cell-based. Conditions: A549, 48 h.
The subject of test [3] is T-24. Kind of test: Induction of cell cycle arrest in human T24 cells assessed as upregulation of gammaH2AX expression at 2 to 8 uM by Western blot analysis. Type of test: functional, cell-based.
Test [4] deals with T-24. Kind of test: Induction of apoptosis in human T24 cells assessed as necrotic cells at 4.13 uM by AnnexinV/propidium iodide staining based flow cytometry (reference value: 0.1%). It is filed as functional.
The subject of test [5] is T-24. Kind of test: Cell cycle arrest in human T24 cells assessed as accumulation at G2/M phase at 4.13 uM measured after 24 hrs by propidium iodide staining based fluorescence analysis (reference value: 10.16%). It is filed as functional.
The test system of test [6] is T-24. Kind of test: Anticancer activity against human T24 cells xenografted in mouse assessed as tumor inhibition rate at 5 mg/kg measured at day 14 relative to control. It is filed as functional. Conditions: T-24, 336 h. (In general: A xenograft is tissue or cells of one species grown in another, often human tumour cells in immunodeficient mice.)
The subject of test [7] is T-24. Kind of test: Induction of apoptosis in human T24 cells assessed as necrotic cells at 8.26 uM by AnnexinV/propidium iodide staining based flow cytometry (reference value: 0.1%). Type of test: functional. (In general: In flow cytometry, cells or beads pass a laser one at a time.)
Test [8] concerns T-24. Kind of test: Induction of cell cycle arrest in human T24 cells assessed as upregulation of cyclin-B1 expression at 2 to 8 uM by Western blot analysis. Type of test: functional, cell-based.
In test [9] the test system is HepG2. Kind of test: Antiproliferative activity against human HepG2 cells assessed as cell growth inhibition measured after 48 hrs by MTT assay. It is filed as functional, cell-based. As to conditions: HepG2, 48 h.
The test system of a further test is SK-OV-3. Kind of test: Antiproliferative activity against human SKOV3 cells assessed as cell growth inhibition measured after 48 hrs by MTT assay. Type of test: functional, cell-based. As to conditions: SK-OV-3, 48 h.
For test [10], the system named is T-24. Kind of test: Induction of apoptosis in human T24 cells assessed as live cells at 2.06 uM by AnnexinV/propidium iodide staining based flow cytometry (reference value: 99.1%). It is filed as functional.
Test [11] has as its system T-24. Kind of test: Induction of apoptosis in human T24 cells assessed as late apoptotic cells at 2.06 uM by AnnexinV/propidium iodide staining based flow cytometry (reference value: 0%). It is filed as functional.
Test [12] has as its system T-24. Kind of test: Cell cycle arrest in human T24 cells assessed as accumulation at G1 phase at 8.26 uM measured after 24 hrs by propidium iodide staining based fluorescence analysis (reference value: 66.18%). Type of test: functional.
The test system of test [13] is DNA. Kind of test: Induction of Escherichia coli supercoiled circular pBR322 DNA cleavage at 20 to 100 uM by gel electrophoresis mobility shift assay. Type of test: nucleic-acid assay.
Test [14] has as its system T-24. Kind of test: Induction of apoptosis in human T24 cells by AnnexinV/propidium iodide staining based flow cytometry. Type of test: functional, cell-based.
The subject of test [15] is DNA. Kind of test: Binding affinity to supercoiled circular Escherichia coli pBR322 DNA assessed as DNA intercalation at 20 to 100 uM by gel electrophoresis mobility shift assay. Type of test: nucleic-acid assay.
Test [16] relates to T-24. Kind of test: Induction of apoptosis in human T24 cells assessed as late apoptotic cells at 4.13 uM by AnnexinV/propidium iodide staining based flow cytometry (reference value: 0%). It is filed as functional.
Test [17] relates to HepG2. Kind of test: Anticancer activity against human HepG2 cells xenografted in mouse assessed as tumor inhibition rate at 15 mg/kg measured at day 14 relative to control. It is filed as functional. Conditions: HepG2, 336 h.
Test [18] deals with T-24. Kind of test: Induction of apoptosis in human T24 cells assessed as […] of Bcl-2 expression at 2 to 8 uM by Western blot analysis. Type of test: functional, cell-based.
Test [19] concerns T-24. Kind of test: Cell cycle arrest in human T24 cells assessed as accumulation at S phase at 8.26 uM measured after 24 hrs by propidium iodide staining based fluorescence analysis (reference value: 23.67%). Type of test: functional.
The test system of test [20] is T-24. Kind of test: Induction of apoptosis in human T24 cells assessed as necrotic cells at 2.06 uM by AnnexinV/propidium iodide staining based flow cytometry (reference value: 0.1%). Type of test: functional.

One may read the IC50 as the concentration that gives 50% inhibition. As a reminder, the inhibition in vivo is the share of the control response that was lost under treatment. For `CNCCN1C(=O)c2cccc3cc([N+](=O)[O-])cc(c23)C1=O`, the IC50 with L02 was 18.7 µM; in the test on SMMC-7721, 14 µM; in the test on A549, 12.6 µM; in the test with HepG2 [9] it was 9.2 µM; in the test on SK-OV-3, 20.7 µM. Also, the result with T-24 [1], in the test on T-24 [3], in the test with T-24 [8], in the test with DNA [15] and in the test with T-24 [18] was Active. Besides, the Activity in the test on T-24 [2] is 30.01%; with T-24 [4], 0.1%; in the test on T-24 [5] it was 82.11%; in the test with T-24 [7], 0%; in the test on T-24 [10], 98.8%; in the test with T-24 [11], 0%. Besides, the Activity in the test with T-24 [12] is 0.05%; with T-24 [14] it was “Dose-dependent effect”; with T-24 [16], 0%; in the test on T-24 [19], 7.71%; with T-24 [20], 0.2%. Moreover, in the test on T-24 [6], the inhibition in vivo at 5 mg/kg was 30.1%. Further, the outcome in the test with DNA [13] was inactive. Besides, the inhibition in vivo at 15 mg/kg with HepG2 [17] was 60%.
